Consider 7 compounds from US6057153A, “Stabilized external guide sequences” (Yale University, priority 1997, dated 2000).

Entries after “also recorded” stand apart in the source; their conditions may differ.

For data set [1] the following is noted: APL patients, cited from earlier work.
For another data set, the system named is NB4/D5 cells. Nature of the data set: MTT proliferation assay. It counts as cell-based, human. The settings on record: for effect on cell growth as measured by MTT assay: NB4/D5 cells, 1 to 10 μM EGS, daily replacement; for concentration above which dose dependent inhibition of NB4 cell growth was observed: NB4 cells, MTT assay. As for the experimental part:
Cell culture testing: NB4 cells, a maturation inducible cell line with t(15;17) translocation marker isolated from an acute promyelocytic leukemia patient (Lanotte et al. (1991)) was used to test the antiproliferative activity of EGSs targeted to PML-RARα. These cells respond to maturation-inducing effects of all-trans retinoic acid. One subclone of NB4 cells, NB4/D5, which uniformly responds to retinoic acid (Ahn et al. (1995)), was used for cell culture testing. The NB4 cells were grown in RPMI media containing 10% fetal bovine serum (Intergen, Purchase, N.Y.), 100 U/ml penicillin, 200 μg/ml streptomycin, and 20 mM glutamine with pCO2 of 5% at 37° C.
All treatments were done in triplicate and experiments were repeated more than once. NB4/D5 cells which were maintained in logarithmic growth phase were seeded at a density of 1×10^5 cells in 1 ml of RPMI medium in a 24 well tissue culture plate. Increasing concentrations of EGS were added to the cells. More than 90% of the media was removed every 24 hours and replaced with fresh media containing the same concentration of EGS. An aliquot of the cells was removed every 24 hours and an MTT proliferation assay (as described by Mosmann et al., Journal of Immunological Methods, 65:55 (1983)) was performed on these cells.
Background: Tetrazolium dyes change colour on reduction, which living cells bring about.

For data set [2], the system named is APL RNA (PML-RARα fusion junction). The data set is described as follows: Test tube cleavage assay. The data set is classed as biochemical. The settings on record: 0.25 μM EGS, RNase P from HeLa cells. The protocol:
Test tube cleavage assay: Three nanograms of linearized pAPL-3Z3 plasmid with HindIII restriction enzyme was transcribed as described in Example 1 in presence of ^32 P-ATP for 30 minutes 0.25 μM (final concentration) of EGS and 2 μl of a purified preparation of RNase P from HeLa cells (Bartkiewicz et al., Genes and Development, 3:488-499 (1989)) was added to the transcription reaction during the transcription. The reaction products were separated on a denaturing polyacrylamide gel and visualized using a Molecular Dynamics PHOSPHORIMAGER™.

The test system of another data set is HBV RNA. The data set is described as follows: RNase protection assay after transfection of pol III EGS expression vectors. The data set is classed as cell-based. The note with it: HepG2.2.15 cells transfected with EGS plasmids. The source says: Cloning of EGS 2 and EGS 62: pREP9 (Invitrogen, San Diego, Calif.), an Epstein-Barr virus-based vector (Yates et al., Nature, 313:812-815 (1985)), was cut with XbaI and KpnI to remove the RSV LTR promoter sequence in the vector and a 244 nucleotide human U6 promoter (hU6; from nucleotide +1 to -244) was cloned into this region. cDNAs corresponding to EGS 2 and EGS 62 (see FIGS. 19 and 20, respectively) were synthesized on an Applied Biosystems DNA synthesizer, purified and cloned downstream of the hU6 promoter between KpnI and BamHI. The EGS sequence and the hU6 promoter sequence were excised using XbaI and BamHI and subcloned in pCEP4 (Invitrogen, San Diego, Calif.) that had been digested with BglII and NheI. […]
All plasmids were amplified in bacteria and the plasmid DNAs were purified using Qiagen (Qiagen Inc., Chatsworth, Calif.) columns. […] The protected fragments were separated on a 6% denaturing polyacrylamide gel, and the radioactivity associated with the protected bands were quantitated using a Molecular Dynamics PHOSPHORIMAGER™. The quantitation of the GAPDH RNA was used to normalize the samples.

The nature of data set [3]: Fetal Calf Serum Stability Assay. The data set is classed as in vitro ADME. The settings on record: 10% heat-inactivated fetal calf serum, EGS about 5 μM. As for the experimental part: Fetal Calf Serum Stability Assay: The nuclease resistance of modified EGS molecules were tested in a Fetal Calf Serum (FCS) Assay. It was reported by Shaw et al., Nucleic Acids Res. 19:747-750 (1991), that 10% FCS, when heated inactivated, mimics rather closely the human serum. The assay conditions were very similar to that previously described by Hoke et al., Nucleic Acids Res. 19:5743-5748 (1991). Briefly, an EGS analog to be tested was 5'-end labeled with T4 polynucleotide kinase and [γ-^35 S] ATP (this procedure can generate radiolabeled oligonucleotides which are resistant against dephosphorylation). The labeled EGS was then purified by phenol/chloroform extraction, followed by a Sephadex G-25 spin-column filtration. The purified EGS was mixed with cold EGS and 10% heat-inactivated fetal calf serum (FCS) so that the final concentration of EGS was about 5 μM. EGS analogues were treated over a period of 24 hours. Aliquots were withdrawn from the reaction mixture at different time points, mixed with 2× loading dye, heat inactivated at 90° C. for 3 min, then stored at -20° C. The results were analyzed on 12% polyacrylamide/7 M urea gels.

Data set [4] relates to short substrate (SEQ ID NO. 1) derived from the full-length pre-genomic HBV RNA. Nature of the data set: RNAse P cleavage assay, short substrate. The data set is classed as biochemical. The settings on record: for efficiency of RNase P-mediated target cleavage relative to the wild-type EGS: short substrate, EGS 200 nM, 37° C., 1 hour. The protocol:
RNAse P Cleavage Assays: Cleavage reactions were carried out generally according to the procedure described by Yuan et al., Proc. Natl. Acad. Sci., USA, 89:8006-8010, (1992), which is hereby incorporated by reference. Briefly, short substrate reactions were made up to a total volume of 31μ in 50 mM Tris-HCl pH 7.4, 10 mM MgCl2, 25 mM KCl, 0.1 mM EDTA, […] at 37° C. for 1 hour. After incubation, the reaction solution was mixed with loading buffer (98% formamide, 10 mM EDTA, 0.025% bromophenol blue). The cleaved substrate was separated from the uncleaved by electrophoresis on a 15% acrylamide gel containing 7 M urea. The bands were quantified on a Molecular Dynamics PHOSPHORIMAGER™.
The bands corresponding to the precursor RNA substrate and the resulting two cleavage products were counted from the dried gel using a BETASCOPE™ gel analyzer (Betagen).
RNAse P was purified by DEAE SEPHAROSE™ chromatography and glycerol density gradient centrifugation essentially as described by Bartkiewicz et al., Genes Dev. 3:488-499 (1989), which is hereby incorporated by reference.
The percentage of precursor RNA substrate remaining in either assay was plotted as function of the EGS concentration and the catalytic efficiency expressed as kcat /Km (where kcat is the rate constant of cleavage and Km is the Michaelis constant), the second order rate constant for the reaction of free EGS and substrate. Following the methods of Heidenreich and Eckstein (J. Biol. Chem., 267:1904-1909 (1992), the efficiency of the cleavage reaction, kcat /Km), was determined using the formula
The EGS constructs described in Example 2 were assayed using the RNAse P cleavage assays described in Example 1 to determine the efficiency of the cleavage reaction. FIG. 1 depicts the model system using a short substrate which was used to evaluate the ability of modified EGS molecules in inducing RNase P-mediated target cleavage. The sequence of the short substrate (SEQ ID NO. 1) was derived from the full-length pre-genomic HBV RNA.

In a further data set the test system is 2.1 kb HBV RNA. Nature of the data set: RNAse P cleavage of large target RNA. The settings on record: 250 nM EGS, 30 minutes at 37° C. It counts as biochemical. The protocol: To test cleavage with a longer target RNA molecules, different reaction conditions were used. Reactions in a total volume of 10 μl contained 40 mM Tris-HCl (pH 7.4), 10 mM MgCl2, 1 mM spermidine 10 mM dithiothreitol, 0.05 μg/μl nuclease-free bovine serum albumin, 0.01% (v/v) Triton-X100™, 0.8 Units/μl RNASIN, 0.2 mM ATP, 0.2 mM GTP, 0.2 mM UTP, 0.2 mM CTP, 0.1 μCi/μl [a^32 P] CTP, 2 mM m^7 G(5')pppG, 0.06 μg/μl yeast RNA, 25 mM KCl, 3 Units T7 RNA polymerase, 250 nM EGS, 1 μl of human RNAse P and 3 ng/μl linearized plasmid. Reactions were initiated by the addition of linearized plasmid and incubated for 30 minutes at 37° C. Reactions were terminated by the addition of 10 μl of 80% formaemide, 10 mM EDTA, 0.1% bromphenol blue. After heating for 2 minutes at 90° C., samples were electrophoresed for 2 hours at 48 watts on a 5% denaturing polyacrylamide gel. After vacuum drying for 1 hour at 60° C., the gel was analyzed by phosphoimaging.
Cleavage of Large Target RNA: Plasmid pAYW2.1, containing the sequence that encodes the 2.1 kb RNA of the AYW strain of HBV, was linearized by digestion with Not I, and then transcribed by T7 RNA polymerase in the presence of [α^32 P]CTP. Labeled transcripts were incubated for 30 minutes at 37° C. with RNase P in the presence of various EGS molecules. Reaction products were subjected to denaturing polyacrylamide gel electrophoresis, and analyzed by phosphoimaging. EGS-mediated cleavage at the targeted site of the 2.1 kb transcript produces cleavage products that are approximately 1.7 and 0.4 kb in length.

For `CC1=C(/C=C/C(C)=C/C=C/C(C)=C/C(=O)O)C(C)(C)CCC1` [TRETINOIN, all-trans retinoic acid], the “patients in whom remission was induced” value in data set [1] (several published studies) is given as “about 48%”. For the same compound, in data set [1], the “duration of the remission, average” value is recorded as 3.5 months.

Turning to “APL 1009: EGS SEQ ID NO. 12 targeted to the fusion junction of PML-RARα (guide GUCUCAAGAAGGUUCGAAUCCUUCGGCUGCC; chemistry not given here)”, in the data set on NB4/D5 cells, the “effect on cell growth as measured by MTT assay” value is recorded as “inhibitory to cell growth” and the “concentration above which dose dependent inhibition of NB4 cell growth was observed” value is given as “above 3 μM”. For the same compound, the “cleavage of the APL RNA at the fusion junction” value in data set [2] is given as “induced cleavage”.

In the case of “APL A20: EGS SEQ ID NO. 11 targeted to the fusion junction of PML-RARα (guide GGGUCUCAGGCCCGGGUUCGAUUCCCGGUGGCUGC; chemistry not given here)”, in the data set on NB4/D5 cells, the “effect on cell growth as measured by MTT assay” value was “inhibitory to cell growth” and the “concentration above which dose dependent inhibition of NB4 cell growth was observed” value is “above 3 μM”. Besides, in data set [2], the “cleavage of the APL RNA at the fusion junction” value is on record as “induced cleavage”.

As to “EGS 2A: SEQ ID NO. 27, anti-HBV EGS expressed from hU6 pol III vector (guide GTGCTCGCTTCGGCAGCACTATACGCAGCGATCCGGGTTCCCGGCCAGGACACTATTTTT)”, in the data set with HBV RNA, the “inhibition of HBV RNA expression (ranking)” value was “maximal inhibition”.

Consider “INNO-139: SEQ ID NO. 3, variable loop deleted, 2'-O-methyl recognition sequences and T stem (CGAUGAAGGUUCGAAUCCUUCCCAGGAC; 2'-O-methyl modifications, chemistry not fully specified)”, for which the “half-life in 10% FCS” value in data set [3] was 2 h. The “turnover of EGS-mediated cleavage” value in data set [4] (EGS 20 nM, target 400 nM (20 fold excess)) is reported as “do not significantly affects turnover”. Besides, the “efficiency of RNase P-mediated target cleavage relative to the wild-type EGS” value in data set [4] was “much of the lost activity can be restored”.

“INNO-140: all-RNA EGS without variable loop, SEQ ID NO. 3, 28 nucleotides (CGAUGAAGGUUCGAAUCCUUCCCAGGAC; guide RNA; RNA, backbone not given here)”: the “half-life in 10% FCS” value in data set [3] is reported as “less than 10 minutes”.

As to “INNO-155: SEQ ID NO. 3, 2'-O-methyl, phosphorothioate T loop, 2'-O-methyl phosphorothioate end caps (CGAUGAAGGUUCGAAUCCUUCCCAGGAC; 2'-O-methyl, phosphorothioate T loop and end caps, positions not given here)”, the “half-life in 10% FCS” value in data set [3] is “more than 18 hours”. Further, the “RNase P-mediated cleavage of 2.1 kb HBV RNA” value in the data set with 2.1 kb HBV RNA is listed as “capable of inducing RNase P-mediated cleavage; also recorded: partially cleaved”. Also, in data set [4], the “efficiency of RNase P-mediated target cleavage relative to the wild-type EGS” value is recorded as “capable of inducing an efficient target cleavage”.
